Experimental data published in patent US20140371165A1, “Identification of NSC23925 Isomers to Reverse Multidrug Resistance in Human Cancers” (priority 2012, published 2014).
“Also recorded” adds a separate entry of the source. Where a name gives a salt, the structure may show the parent alone.

Legend:
[1] = tested on: MDR cancer cell lines; assay: MTT reversal of drug resistance in MDR cell lines (cell line not specified); type: cell-based
Description: A panel of parental cancer cell line and their daughter resistant cell lines, displaying MDR phenotype were used in this study. Human ovarian cancer cell line SKOV-3, breast cancer cell line MCF-7 and colon cancer cell line SW480, the osteosarcoma cell line U-2OS, KHOS, uterine sarcoma cell line MESSA and its doxorubicin selected drug resistant cell line MESSA/Dx5, non-small cell lung cancer cell line H-69 and its doxorubicin selected drug resistant cell line H-69AR (overexpress MRP1) were obtained from the ATCC (Rockville, Md.). Dr. Efstathios Gonos (Institute of Biological Research & Biotechnology, Athens, Greece) provided the doxorubicin resistant U-2OS R2 (referred in the text below as U-2OSDR), KHOS R2 cell lines. Dr. Erasmus Schneider (Wadsworth Center, Albany) provided the mitoxantrane resistant breast cancer MCF-7/MX (overexpress BCRP) cell line. All the cell lines were cultured in RPMI 1640 (Invitrogen, Carlsbad, Calif.) supplemented with 10% fetal bovine serum, 100-units/ml penicillin and 100 μg/ml streptomycin (Invitrogen). Cells were incubated at 37° C. in 5% CO2-95% air atmosphere and passaged when near confluent monolayers were achieved using 2% trypsin-EDTA solution. Drug-resistant cell lines were periodically cultured in the respective drug to confirm their drug resistance characteristics. The fresh chemotherapy drugs were obtained from the pharmacy at the Massachusetts General Hospital and stored at −20° C.
To evaluate for reversal of Pgp-mediated MDR, SKOV-3TR, MCF-7adr and SW480TR cell lines were seeded into 96-well tissue culture plate at 2,000 cells per well with varying concentrations of chemotherapy drugs and NSC23925b for 6 days. Cell proliferation IC50 (concentration required for 50% inhibition) and MDR reversal IC50 were determined from dose-response curves carried out in triplicate in 96-well plate. Fold of reverse resistance for individual drugs were defined as the IC50 of MDR cells without NSC23925b treatment divided by the IC50 of MDR cells treated with NSC23925b. To test for the effect of reversal of MRP1 or BCRP-mediated MDR, H-69AR or MCF-7/MX cells were placed into 96-wells and treated with chemotherapy drugs similar as described above. Drug cytotoxicity was assessed in vitro using the MTT assay as previously described. Drugs at the concentrations utilized in the MTT assay were performed in the absence of cells to verify no change in absorbance. Response curves were fitted with use of GraphPad PRISM 4 software (GraphPad Software).

[2] = tested on: H-69AR; assay: MTT reversal of MRP1-mediated MDR in H-69AR; type: cell-based, human; conditions: non-Pgp expressing drug resistant cell line
[3] = tested on: MCF-7/MX; assay: MTT reversal of BCRP-mediated MDR in MCF-7/MX; type: cell-based, human; conditions: non-Pgp expressing drug resistant cell line
Description: A panel of parental cancer cell line and their daughter resistant cell lines, displaying MDR phenotype were used in this study. Human ovarian cancer cell line SKOV-3, breast cancer cell line MCF-7 and colon cancer cell line SW480, the osteosarcoma cell line U-2OS, KHOS, uterine sarcoma cell line MESSA and its doxorubicin selected drug resistant cell line MESSA/Dx5, non-small cell lung cancer cell line H-69 and its doxorubicin selected drug resistant cell line H-69AR (overexpress MRP1) were obtained from the ATCC (Rockville, Md.). Dr. Efstathios Gonos (Institute of Biological Research & Biotechnology, Athens, Greece) provided the doxorubicin resistant U-2OS R2 (referred in the text below as U-2OSDR), KHOS R2 cell lines. Dr. Erasmus Schneider (Wadsworth Center, Albany) provided the mitoxantrane resistant breast cancer MCF-7/MX (overexpress BCRP) cell line. […]
To evaluate for reversal of Pgp-mediated MDR, SKOV-3TR, MCF-7adr and SW480TR cell lines were seeded into 96-well tissue culture plate at 2,000 cells per well with varying concentrations of chemotherapy drugs and NSC23925b for 6 days. […] Drug cytotoxicity was assessed in vitro using the MTT assay as previously described. Drugs at the concentrations utilized in the MTT assay were performed in the absence of cells to verify no change in absorbance. […]

[4] = target: T1, Pgp (Homo sapiens, UniProt P08183); assay: Calcein AM drug efflux fluorescence microscopy assay (Vybrant multi-drug resistance kit); type: cell-based
T1 construct: multidrug resistant cells expressing high levels of Pgp rapidly extrude non-fluorescent calcein AM from the plasma membrane; endogenous in cells; host or cells: MCF-7adr and SW480TR drug-resistant cells
T1 sequence (P08183 whole entry): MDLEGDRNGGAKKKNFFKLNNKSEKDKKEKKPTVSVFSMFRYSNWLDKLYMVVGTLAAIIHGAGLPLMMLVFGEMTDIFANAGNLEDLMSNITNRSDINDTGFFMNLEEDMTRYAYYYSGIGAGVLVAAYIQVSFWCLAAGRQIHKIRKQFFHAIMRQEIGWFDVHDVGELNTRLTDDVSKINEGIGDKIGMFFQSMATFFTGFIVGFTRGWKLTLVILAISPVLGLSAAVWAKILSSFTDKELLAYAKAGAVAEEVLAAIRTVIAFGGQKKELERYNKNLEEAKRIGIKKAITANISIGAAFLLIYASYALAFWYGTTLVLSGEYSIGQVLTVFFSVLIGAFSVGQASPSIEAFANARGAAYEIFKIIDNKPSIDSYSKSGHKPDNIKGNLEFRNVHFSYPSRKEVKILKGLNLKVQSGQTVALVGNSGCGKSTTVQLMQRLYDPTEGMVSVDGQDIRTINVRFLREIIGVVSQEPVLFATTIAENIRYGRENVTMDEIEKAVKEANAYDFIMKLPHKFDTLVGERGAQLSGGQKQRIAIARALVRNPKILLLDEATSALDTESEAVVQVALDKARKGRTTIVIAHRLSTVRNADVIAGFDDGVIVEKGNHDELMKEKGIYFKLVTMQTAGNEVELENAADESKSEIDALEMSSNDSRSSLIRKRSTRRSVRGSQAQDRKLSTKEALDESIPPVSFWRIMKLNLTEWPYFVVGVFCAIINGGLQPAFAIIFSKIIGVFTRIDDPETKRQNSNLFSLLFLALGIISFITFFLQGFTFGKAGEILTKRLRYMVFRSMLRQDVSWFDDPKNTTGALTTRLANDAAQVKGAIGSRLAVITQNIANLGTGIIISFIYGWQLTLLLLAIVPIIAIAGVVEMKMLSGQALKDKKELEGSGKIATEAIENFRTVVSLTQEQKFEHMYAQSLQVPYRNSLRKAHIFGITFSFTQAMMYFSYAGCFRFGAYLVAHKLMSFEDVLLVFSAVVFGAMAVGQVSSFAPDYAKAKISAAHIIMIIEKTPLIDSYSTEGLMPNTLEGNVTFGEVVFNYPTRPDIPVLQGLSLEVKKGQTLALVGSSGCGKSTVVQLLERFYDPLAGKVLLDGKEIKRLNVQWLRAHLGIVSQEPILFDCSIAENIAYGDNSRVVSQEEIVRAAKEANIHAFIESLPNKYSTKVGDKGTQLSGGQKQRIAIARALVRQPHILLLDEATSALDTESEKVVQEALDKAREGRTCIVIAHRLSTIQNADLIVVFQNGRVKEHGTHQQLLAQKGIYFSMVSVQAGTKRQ
Description: The Vybrant™ multi-drug resistance assay kit (Invitrogen/Molecular Probes) was used to measure drug efflux properties of different resistant cell lines. This assay utilizes the fluorogenic dye calcein acetoxymethyl ester (calcein AM) as a substrate for efflux activity of Pgp or other membrane pump ABC proteins. Calcein AM is taken up by cells and hydrolyzed by cytoplasmic esterases to fluorescent calcein. Calcein […] is well retained in the cytosol. However, multidrug resistant cells expressing high levels of Pgp rapidly extrude non-fluorescent calcein AM from the plasma membrane, reducing accumulation of fluorescent calcein in the cytosol. Studies were carried out as described. In brief, drug resistant cells (5,000 cells per well) were cultured in 96-well plate for 24 hours. Triplicated cultures of cells were treated with different concentrations of NSC23925b for one hour and then incubated in calcein AM in 100 μl total volume. After 30 minutes, images were acquired by Nikon Eclipse Ti-U fluorescence microscope (Nikon Corp.) equipped with a SPOT RT digital camera (Diagnostic Instruments, Inc., Sterling Heights, Mich.).
The effect of NSC23925b on the uptake and efflux of calcein AM in MCF-7adr and SW480TR was determined. […] The calcein-AM assay was optimized and performed using the Vybrant Multidrug Resistance kit. Cells were seeded at 50,000 cells/well (100 μl of culture medium) in 96-well plate and incubated for 24 hours. MCF-7adr cells in triplicate were treated with NSC23925b for one hour and then incubated in calcein AM for 30 minutes. The cell fluorescence images were acquired by a fluorescence microscope. NSC23925b has a prominent effect on the accumulation of calcein AM in these cells starting at a concentration as low as 1 nM.

[5] = tested on: SKOV-3TR xenograft tumors; assay: SKOV-3TR xenograft tumor growth in nude mice
Experimental: The Crl:SHO-Prkdc^SCIDHr^hr nude female mice at approximately 3-4 weeks of age were purchased from The Charles River Laboratories (Ann Arbor, Mich.). Animal studies were carried out with protocols approved by the Massachusetts General Hospital Subcommittee on Research Animal Care (SRAC). To determine the effect of NSC23925b on paclitaxel sensitivity in xenograft model, 5×10^6 SKOV-3TR cells were injected subcutaneously with matrigel (BD Biosciences, San Jose, Calif.) on day one. Two weeks after injection, the mice were divided into four groups to start the treatments. Group one was received intraperitoneal (i.p) injection with normal saline, group two with paclitaxel (20 mg/kg), group three with NSC23925b (40 mg/kg). […] All four groups were treated twice a week for two weeks. The health of the mice and evidence of tumor growth were examined daily. Tumors were measured twice a week with a digital caliper. Tumor volume (mm^3) was calculated as (W^2×L)/2, where W is width and L is length. The curve of tumor growth was drawn according to tumor volume by using of GraphPad PRISM 4 software.
To further evaluate the effects of NSC23925b and paclitaxel combination therapy on the tumor growth of resistant cells, the growth of xenograft tumors were examined. A well-characterized ovarian cancer MDR cell line SKOV-3TR was chosen for in vivo studies. […] Tumors were measured twice a week with a digital caliper. Tumor volume (mm^3) was calculated as (W^2×L)/2, where W is width and L is length (FIG. 5A). Representative images of dissected tumor tissues from treated nude mice.

[6] = Reverse Drug Resistance by NSC23925b, value = chemotherapy drug, hydrochloride

SMILES: COc1ccc(-c2cc([C@H](O)[C@H]3CCCCN3)c3ccccc3n2)cc1 [NSC23925b, (2-(4-methoxyphenyl)quinolin-4-yl)(piperidin-2-yl)methanol hydrochloride]
- effects on the drug sensitivities of cisplatin, carboplatin, toptecan and methotrexate [1]: no significant effects
- Decreased Drug Resistance (drug to which NSC23925b decreased resistance) [1, 6]: Gemcitabine; also recorded: ET-743; also recorded: Mitoxantrane; also recorded: Paclitaxel; also recorded: Docetaxel; also recorded: Doxorubicin; also recorded: Vincristine; also recorded: Daunorubicin
- No Effect (drug whose resistance NSC23925b did not change) [1, 6]: Cisplatin; also recorded: Carboplatin; also recorded: Topotecan; also recorded: Methotrexate
- effect on doxorubicin-induced cell death (MTT cytotoxicity assay) ([1]; combined with doxorubicin): synergistic effect
- reverse MDR to paclitaxel, doxorubicin, and mitoxantrane ([1]; ovarian, breast, uterine, colon, and sarcoma MDR cancer cell lines): able to reverse MDR
- reversal of MRP1 mediated drug resistance [2]: unable to reverse drug resistance
- reversal of BCRP mediated drug resistance [3]: unable to reverse drug resistance
- lowest concentration with prominent effect on accumulation of calcein AM ([4]; MCF-7adr and SW480TR cells): 1 nM
- intracellular accumulation of calcein AM ([4]; MCF-7adr and SW480TR, 1 h pretreatment, calcein AM 30 minutes): increase intracellular accumulation of calcein AM in these cell lines in a dose-dependent manner
- near maximal reversal of accumulation deficit ([4]; calcein AM, MCF-7adr and SW480TR cells): 500 nM
- EC50 ([4]; calcein AM, MCF-7adr and SW480TR cells, read-out: Half-maximal reversal of accumulation deficit): 0.1 µM
- reversal of resistance to paclitaxel in xenograft model ([5]; NSC23925b 50 mg/kg with paclitaxel): almost completely reverse resistance to paclitaxel
- toxicity on the basis of animal weight and mortality ([5]; NSC23925b administered alone): no significant toxicity
- effect on paclitaxel-induced toxicity ([5]; NSC23925b combined with paclitaxel): reducing paclitaxel-induced toxicity in some animals
- inhibitory effect on tumor growth, combination versus single agents ([5]; NSC23925b with paclitaxel (20 mg/kg) i.p. twice a week for two weeks): significantly greater inhibitory effect
- effect on paclitaxel resistant tumor cell growth, single agent ([5]; alone, i.p. twice a week for two weeks, paclitaxel 20 mg/kg or NSC23925b 40 mg/kg): no significant effects
